Laboratory results as given in PubChem BioAssay (NCI).
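Tested at 5 concentrations; 48 h exposure; 96-well plates; endpoints linearly interpolated, else capped at highest concentration. Here, GI50 denotes the concentration required for 50% inhibition of growth. The concentration for full growth arrest is given as TGI.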

What was measured:
Assay in all cases: DTP human tumour cell line panel, 48 h
[1] = tested on: RXF 393 renal
[2] = tested on: SK-MEL-2 melanoma
[3] = tested on: PC-3 prostate
[4] = tested on: RPMI-8226 leukemia
[5] = tested on: OVCAR-8 ovarian
[6] = tested on: MCF7 breast
[7] = tested on: DU-145 prostate
[8] = tested on: MDA-MB-435
[9] = tested on: HT29 colon
[10] = tested on: COLO 205 colon
[11] = tested on: TK-10 renal
[12] = tested on: UACC-62 melanoma
[13] = tested on: SF-295 CNS
[14] = tested on: SW-620 colon
[15] = tested on: SNB-19 CNS
[16] = tested on: KM12 colon
[17] = tested on: UACC-257 melanoma
[18] = tested on: UO-31 renal
[19] = tested on: SR leukemia
[20] = tested on: K-562 leukemia
[21] = tested on: HCT-116 colon
[22] = tested on: LOX IMVI melanoma
[23] = tested on: EKVX NSCLC
[24] = tested on: HOP-62 NSCLC
[25] = tested on: SF-539 CNS
[26] = tested on: CAKI-1 renal
[27] = tested on: NCI-H460 lung
[28] = tested on: OVCAR-4 ovarian
[29] = tested on: SK-MEL-5 melanoma
[30] = tested on: HCC-2998 colon
[31] = tested on: SF-268 CNS
[32] = tested on: MDA-MB-231 breast
[33] = tested on: NCI/ADR-RES ovarian
[34] = tested on: SK-MEL-28 melanoma
[35] = tested on: IGROV1 ovarian
[36] = tested on: HL-60(TB) leukemia
[37] = tested on: SNB-75 CNS
[38] = tested on: NCI-H226 lung
[39] = tested on: T-47D breast
[40] = tested on: HOP-92 NSCLC
[41] = tested on: HCT-15 colon
[42] = tested on: SK-OV-3 ovarian
[43] = tested on: HS 578T breast
[44] = tested on: U251 CNS
[45] = tested on: A498 renal
[46] = tested on: CCRF-CEM leukemia
[47] = tested on: 786-0 renal
[48] = tested on: M14 melanoma
[49] = tested on: SN12C renal
[50] = tested on: MALME-3M melanoma
[51] = tested on: OVCAR-5 ovarian
[52] = tested on: A549 NSCLC
[53] = tested on: NCI-H23 lung
[54] = tested on: MOLT-4 leukemia
[55] = tested on: ACHN renal
[56] = tested on: NCI-H522 lung

O=C1CC(c2ccccc2Cl)Oc2ccccc21 (configuration not stated)
TGI [1]: 63.5 µM
TGI [2]: 59.9 µM
TGI [3]: > 100 µM
TGI [4]: 40.7 µM
TGI [5]: 87.1 µM
TGI [6]: 45.4 µM
TGI [7]: > 100 µM
TGI [8]: 43.7 µM
TGI [9]: 22.7 µM
TGI [10]: 68.2 µM
TGI [11]: > 100 µM
TGI [12]: > 100 µM
TGI [13]: > 100 µM
TGI [14]: 67.5 µM
TGI [15]: > 100 µM
TGI [16]: 81.7 µM
TGI [17]: > 100 µM
TGI [18]: > 100 µM
TGI [19]: 50.9 µM
TGI [20]: 40.8 µM
TGI [21]: > 100 µM
TGI [22]: > 100 µM
TGI [23]: > 100 µM
TGI [24]: 91.1 µM
TGI [25]: 34.8 µM
TGI [26]: > 100 µM
TGI [27]: > 100 µM
TGI [28]: > 100 µM
TGI [29]: > 100 µM
TGI [30]: > 100 µM
TGI [31]: > 100 µM
TGI [32]: 47.4 µM
TGI [33]: 48.8 µM
TGI [34]: > 100 µM
TGI [35]: > 100 µM
TGI [36]: > 100 µM
TGI [37]: > 100 µM
TGI [38]: 30.1 µM
TGI [39]: > 100 µM
TGI [40]: 75.2 µM
TGI [41]: 61 µM
TGI [42]: > 100 µM
TGI [43]: > 100 µM
TGI [44]: 83 µM
TGI [45]: > 100 µM
TGI [46]: > 100 µM
TGI [47]: 89.5 µM
TGI [48]: > 100 µM

O=C(N=C1N(c2ccccc2)C(=O)C(=O)N1c1ccccc1)c1ccccc1
TGI [1]: 13.5 µM
TGI [2]: 36.9 µM
TGI [3]: 50.6 µM
TGI [4]: 74.9 µM
TGI [5]: 29.6 µM
TGI [49]: 24.1 µM
TGI [7]: 43.5 µM
TGI [8]: 99.2 µM
TGI [9]: 40.9 µM
TGI [10]: 30 µM
TGI [11]: 33.2 µM
TGI [12]: 30.2 µM
TGI [13]: 25.3 µM
TGI [14]: 28.4 µM
TGI [15]: 28.1 µM
TGI [16]: 46.9 µM
TGI [17]: > 100 µM
TGI [18]: 29 µM
TGI [19]: 41.4 µM
TGI [20]: > 100 µM
TGI [50]: 38.4 µM
TGI [21]: 14.4 µM
TGI [22]: 13.6 µM
TGI [23]: 32.1 µM
TGI [24]: 23.7 µM
TGI [25]: 26.6 µM
TGI [26]: 31.4 µM
TGI [27]: 25.8 µM
TGI [28]: 13.3 µM
TGI [51]: > 100 µM
TGI [29]: 32 µM
TGI [30]: 23.3 µM
TGI [31]: 50.5 µM
TGI [32]: 18.6 µM
TGI [33]: 25.8 µM
TGI [34]: 38.1 µM
TGI [52]: 20.2 µM
TGI [35]: 23.5 µM
TGI [53]: 33.6 µM
TGI [54]: > 100 µM
TGI [36]: > 100 µM
TGI [37]: 25.1 µM
TGI [38]: 29.2 µM
TGI [55]: 14.3 µM
TGI [39]: 56.5 µM
TGI [40]: 20.8 µM
TGI [41]: 22.4 µM
TGI [42]: 19.6 µM
TGI [43]: 27.2 µM
TGI [44]: 24.4 µM
TGI [45]: 39.9 µM
TGI [46]: > 100 µM
TGI [56]: 6.23 µM
TGI [47]: 12.5 µM

CCCCCCCCCCCC[n+]1c(C)cc(N)c2ccccc21
GI50 [2]: 1.27 µM
TGI [2]: 2.72 µM
GI50 [7]: 0.67 µM
TGI [7]: 1.97 µM
GI50 [17]: 0.249 µM
TGI [17]: 0.915 µM
GI50 [28]: 0.327 µM
TGI [28]: 1.6 µM
GI50 [51]: 1.57 µM
TGI [51]: 3.28 µM
GI50 [29]: 0.364 µM
TGI [29]: 1.4 µM
GI50 [33]: 3.18 µM
TGI [33]: > 100 µM
GI50 [34]: 1.18 µM
TGI [34]: 2.47 µM
GI50 [40]: 0.167 µM
TGI [40]: 1.19 µM
GI50 [42]: 1.13 µM
TGI [42]: 2.36 µM
